# From ChEMBL document CHEMBL1201862, “PubChem BioAssay data set” (2004)
#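 Compound exposure: 48 hours, 5 concentrations, 96-well plates. At the GI50, growth is halved.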 Active and inactive are the calls of the source. No stated cut-off is given here; in the data, active = GI50 up to about 1.1 µM and inactive = higher.
# Experiments:
# Assay in all cases: growth of human tumour cells (NCI), 48 h
# [1] = tested on: UACC-257
# [2] = tested on: MOLT-4
# [3] = tested on: HOP-62
# [4] = tested on: SN12C
# [5] = tested on: SK-MEL-2
# [6] = tested on: MCF7
# [7] = tested on: EKVX
# [8] = tested on: UACC-62
# [9] = tested on: SNB-75
# [10] = tested on: CCRF-CEM
# [11] = tested on: NCI-H226
# [12] = tested on: TK-10
# [13] = tested on: Hs-578T
# [14] = tested on: SK-MEL-28
# [15] = tested on: COLO 205
# [16] = tested on: DU-145
# [17] = tested on: SNB-19
# [18] = tested on: T47D
# [19] = tested on: OVCAR-8
# [20] = tested on: HCT-116
# [21] = tested on: NCI-H522
# [22] = tested on: OVCAR-5
# [23] = tested on: SF-268
# [24] = tested on: SF-295
# [25] = tested on: SK-MEL-5
# [26] = tested on: KM12
# [27] = tested on: Malme-3M
# [28] = tested on: MDA-MB-435
# [29] = tested on: HL-60
# [30] = tested on: 786-0
# [31] = tested on: NCI/ADR-RES
# [32] = tested on: HCT-15
# [33] = tested on: RPMI-8226
# [34] = tested on: U-251
# [35] = tested on: NCI-H460
# [36] = tested on: SR
# [37] = tested on: MDA-N
# [38] = tested on: MDA-MB-231
# [39] = tested on: SW-620
# [40] = tested on: HOP-92
# [41] = tested on: ACHN
# [42] = tested on: SF-539
# [43] = tested on: SK-OV-3
# [44] = tested on: HT-29
# [45] = tested on: BT-549
# [46] = tested on: RXF 393
# [47] = tested on: K562
# [48] = tested on: UO-31
# [49] = tested on: A549
# [50] = tested on: IGROV-1
# [51] = tested on: M14
# [52] = tested on: OVCAR-3
# [53] = tested on: HCC 2998
# [54] = tested on: OVCAR-4
# [55] = tested on: PC-3
# [56] = tested on: CAKI-1
# [57] = tested on: A498
# [58] = tested on: NCI-H23
# [59] = tested on: LOX IMVI
structure (smiles),measurement,setting,value
O=C(O)c1cc2ccccc2c(/N=N/c2ccc(S(=O)(=O)Nc3ccccn3)cc2)c1O,GI50,[1],> 100 µM (inactive)
same,GI50,[2],> 100 µM (inactive)
same,GI50,[3],> 100 µM (inactive)
same,GI50,[4],> 100 µM (inactive)
same,GI50,[5],> 100 µM (inactive)
same,GI50,[6],> 100 µM (inactive)
same,GI50,[7],> 100 µM (inactive)
same,GI50,[8],> 100 µM (inactive)
same,GI50,[9],> 100 µM (inactive)
same,GI50,[10],> 100 µM (inactive)
same,GI50,[11],> 100 µM (inactive)
same,GI50,[12],> 100 µM (inactive)
same,GI50,[13],> 100 µM (inactive)
same,GI50,[14],> 100 µM (inactive)
same,GI50,[15],> 100 µM (inactive)
same,GI50,[16],> 100 µM (inactive)
same,GI50,[17],< 0.01 µM (active)
same,GI50,[18],> 100 µM (inactive)
same,GI50,[19],> 100 µM (inactive)
same,GI50,[20],> 100 µM (inactive)
same,GI50,[21],> 100 µM (inactive)
same,GI50,[22],> 100 µM (inactive)
same,GI50,[23],> 100 µM (inactive)
same,GI50,[24],> 100 µM (inactive)
same,GI50,[25],> 100 µM (inactive)
same,GI50,[26],> 100 µM (inactive)
same,GI50,[27],> 100 µM (inactive)
same,GI50,[28],> 100 µM (inactive)
same,GI50,[29],> 100 µM (inactive)
same,GI50,[30],> 100 µM (inactive)
same,GI50,[31],> 100 µM (inactive)
same,GI50,[32],> 100 µM
same,GI50,[33],> 100 µM (inactive)
same,GI50,[34],> 100 µM (inactive)
same,GI50,[35],> 100 µM (inactive)
same,GI50,[36],> 100 µM (inactive)
same,GI50,[37],> 100 µM (inactive)
same,GI50,[38],> 100 µM (inactive)
same,GI50,[39],> 100 µM (inactive)
same,GI50,[40],> 100 µM (inactive)
same,GI50,[41],> 100 µM (inactive)
same,GI50,[42],> 100 µM (inactive)
same,GI50,[43],> 100 µM (inactive)
same,GI50,[44],> 100 µM (inactive)
same,GI50,[45],> 100 µM (inactive)
same,GI50,[46],> 100 µM (inactive)
same,GI50,[47],> 100 µM (inactive)
same,GI50,[48],> 100 µM (inactive)
same,GI50,[49],> 100 µM (inactive)
same,GI50,[50],> 100 µM (inactive)
same,GI50,[51],> 100 µM (inactive)
same,GI50,[52],> 100 µM (inactive)
same,GI50,[53],> 100 µM (inactive)
same,GI50,[54],> 100 µM (inactive)
same,GI50,[55],> 100 µM (inactive)
same,GI50,[56],> 100 µM (inactive)
c1ccc(C2SCC3=Nc4ccccc4CN32)cc1 (stereo not drawn),GI50,[1],94.6 µM (inactive)
same,GI50,[2],34.7 µM (inactive)
same,GI50,[3],26.1 µM (inactive)
same,GI50,[4],> 100 µM (inactive)
same,GI50,[6],26.9 µM (inactive)
same,GI50,[8],60.1 µM (inactive)
same,GI50,[9],30.5 µM (inactive)
same,GI50,[10],34.2 µM (inactive)
same,GI50,[12],75.2 µM (inactive)
same,GI50,[13],73.8 µM (inactive)
same,GI50,[14],50.4 µM (inactive)
same,GI50,[15],19.4 µM (inactive)
same,GI50,[16],24.9 µM (inactive)
same,GI50,[17],13.4 µM (inactive)
same,GI50,[18],25.8 µM (inactive)
same,GI50,[19],18.2 µM (inactive)
same,GI50,[20],14.8 µM (inactive)
same,GI50,[22],25.8 µM (inactive)
same,GI50,[23],78.5 µM (inactive)
same,GI50,[24],14.7 µM (inactive)
same,GI50,[25],14.4 µM (inactive)
same,GI50,[26],43.5 µM (inactive)
same,GI50,[28],29.7 µM (inactive)
same,GI50,[29],23.6 µM (inactive)
same,GI50,[30],21.3 µM (inactive)
same,GI50,[31],17.5 µM (inactive)
same,GI50,[32],51.4 µM
same,GI50,[33],39.8 µM (inactive)
same,GI50,[34],63 µM (inactive)
same,GI50,[35],54 µM (inactive)
same,GI50,[36],31.4 µM (inactive)
same,GI50,[37],87.7 µM (inactive)
same,GI50,[38],> 100 µM (inactive)
same,GI50,[39],87.5 µM (inactive)
same,GI50,[57],> 100 µM (inactive)
same,GI50,[40],50.8 µM (inactive)
same,GI50,[42],28.4 µM (inactive)
same,GI50,[58],16.6 µM (inactive)
same,GI50,[43],23.4 µM (inactive)
same,GI50,[44],17.8 µM (inactive)
same,GI50,[59],36 µM (inactive)
same,GI50,[45],> 100 µM (inactive)
same,GI50,[46],10.8 µM (inactive)
same,GI50,[47],33.5 µM (inactive)
same,GI50,[48],29.9 µM (inactive)
same,GI50,[49],53.8 µM (inactive)
same,GI50,[51],31 µM (inactive)
same,GI50,[52],0.78 µM (active)
same,GI50,[53],61.7 µM (inactive)
same,GI50,[54],78.2 µM (inactive)
same,GI50,[55],25.9 µM (inactive)
same,GI50,[56],> 100 µM (inactive)
